The source of these data is PubChem BioAssay AID316 (DTP/NCI, 2004).

The test system of this test is P1534 leukemia ip, CD2F1 mice, survival T/C. As to the kind of experiment: NCI In Vivo Anticancer Drug Screen. Data for tumor model P1534 Leukemia (intraperitoneal) in CD2F1 (CDF1) mice. The following applies: higher = longer survival. As for the experimental part: The antitumor activity of compounds was measured in mice bearing transplantable tumors. Survival or tumor size were measured and the results are expressed as the measurement made in the treated group (T) divided by the measurement made in the vehicle treated control group (C). The tumor model used in this assay is P1534 Leukemia (intraperitoneal) in CD2F1 (CDF1) mice

The mark [1] stands for this setting: endpoint: mean survival time, dose: 25.0 mg/kg/injection, schedule: Q01DX010 (ip), vehicle: saline.
Setting [2] is: endpoint: mean survival time, dose: 50.0 mg/kg/injection, schedule: Q01DX010 (ip), vehicle: saline.
[3] abbreviates: endpoint: mean survival time, dose: 0.25 mg/kg/injection, schedule: Q01DX010 (ip), vehicle: saline.
[4] abbreviates: endpoint: mean survival time, dose: 1.0 mg/kg/injection, schedule: Q01DX010 (ip), vehicle: saline.
Setting [5] is: endpoint: mean survival time, dose: 2.0 mg/kg/injection, schedule: Q01DX010 (ip), vehicle: saline.
[6] abbreviates: endpoint: mean survival time, dose: 100.0 mg/kg/injection, schedule: Q01DX010 (ip), vehicle: saline.

The structures appear in SMILES notation. “And” between values parts separate entries of the source, which are not always exact repeats. Identical values can stand only once. Toxic doses and inconclusive results are not listed.

In the case of `CCN(CC)C(=S)S`, the T/C runs as follows: (endpoint: mean survival time, dose: 125.0 mg/kg/injection, schedule: Q01DX010 (ip), vehicle: saline) 100 % of control; (endpoint: mean survival time, dose: 250.0 mg/kg/injection, schedule: Q01DX010 (ip), vehicle: saline) 100 % of control; (endpoint: mean survival time, dose: 500.0 mg/kg/injection, schedule: Q01DX010 (ip), vehicle: saline) 103 % of control; (endpoint: mean survival time, dose: 1000.0 mg/kg/injection, schedule: Q01DX010 (ip), vehicle: saline) 107 % of control.
As for `CCC(=O)O[C@H]1CC[C@H]2[C@@H]3CCC4=CC(=O)CC[C@]4(C)[C@H]3CC[C@]12C`, the T/C was 96 % of control (endpoint: mean survival time, dose: 62.5 mg/kg/injection, schedule: Q01DX010 (sc), vehicle: steriod suspending solution); 100 % of control (endpoint: mean survival time, dose: 125.0 mg/kg/injection, schedule: Q01DX010 (sc), vehicle: steriod suspending solution); 100 % of control (endpoint: mean survival time, dose: 250.0 mg/kg/injection, schedule: Q01DX010 (sc), vehicle: steriod suspending solution); 100 % of control (endpoint: mean survival time, dose: 500.0 mg/kg/injection, schedule: Q01DX010 (sc), vehicle: steriod suspending solution).
Take `CC1CCCCN1` (configuration not stated): the T/C was 103 % of control (endpoint: mean survival time, dose: 6.25 mg/kg/injection, schedule: Q01DX010 (ip), vehicle: saline); 103 % of control (endpoint: mean survival time, dose: 12.5 mg/kg/injection, schedule: Q01DX010 (ip), vehicle: saline); 103 % of control under setting [1]; 96 % of control under setting [2].
For the compound `CC(=O)OCC1OC(n2ncc(=O)[nH]c2=O)C(OC(C)=O)C1OC(C)=O` (configuration not stated), the T/C reads like this: (endpoint: mean survival time, dose: 300.0 mg/kg/injection, schedule: Q01DX010 (ip), vehicle: saline) 89 % of control; (endpoint: mean survival time, dose: 450.0 mg/kg/injection, schedule: Q01DX010 (ip), vehicle: saline) 96 % of control; (endpoint: mean survival time, dose: 675.0 mg/kg/injection, schedule: Q01DX010 (ip), vehicle: saline) 100 % of control.
Take `O=CC(NC(=O)N(CCCl)N=O)C(O)C(O)C(O)CO` (configuration not stated): the T/C reads like this: (endpoint: median survival time, dose: 0.62 mg/kg/injection, schedule: Q01DX005 (ip), vehicle: other) 110 % of control; (endpoint: median survival time, dose: 2.5 mg/kg/injection, schedule: Q01DX005 (ip), vehicle: other) 156 % of control; (endpoint: median survival time, dose: 5.0 mg/kg/injection, schedule: Q01DX005 (ip), vehicle: other) 224 % of control; (endpoint: median survival time, dose: 10.0 mg/kg/injection, schedule: Q01DX005 (ip), vehicle: other) 89 % of control.
Turning to `O=C(O)CCCc1ccc(N(CCCl)CCCl)cc1`, the T/C is 114 % of control (endpoint: mean survival time, dose: 6.25 mg/kg/injection, schedule: Q01DX010 (ip), vehicle: other) and 103 % of control (endpoint: mean survival time, dose: 25.0 mg/kg/injection, schedule: Q01DX010 (ip), vehicle: other).
For `CC(=O)OC(C)(C)/C=C/C(=O)[C@](C)(O)[C@H]1[C@H](O)C[C@@]2(C)[C@@H]3CC=C4[C@@H](CC[C@H](O)C4(C)C)[C@]3(CO)C(=O)C[C@]12C`, the T/C reads like this: (endpoint: mean survival time, dose: 0.16 mg/kg/injection, schedule: Q01DX010 (ip), vehicle: saline) 103 % of control; under setting [3], 100 % of control; (endpoint: mean survival time, dose: 0.38 mg/kg/injection, schedule: Q01DX010 (ip), vehicle: saline) 103 % of control; (endpoint: mean survival time, dose: 0.57 mg/kg/injection, schedule: Q01DX010 (ip), vehicle: saline) 103 % of control.
As to `Cc1cc(O)c2cc3c(O)c(O)ccc3cc2c1`, the T/C by setting is: under setting [4], 100 % of control; under setting [5], 103 % of control.
Consider `N[C@@H](Cc1ccc(N(CCCl)CCCl)cc1)C(=O)O`, for which the T/C is 164 % of control (endpoint: mean survival time, dose: 1.25 mg/kg/injection, schedule: Q01DX010 (ip), vehicle: saline) and 189 % of control (endpoint: mean survival time, dose: 2.5 mg/kg/injection, schedule: Q01DX010 (ip), vehicle: saline).
For the compound `N#C[C@@H]1C2C=CC(CC2)[C@H]1C#N`, the T/C runs as follows: under setting [3], 100 % of control; (endpoint: mean survival time, dose: 0.5 mg/kg/injection, schedule: Q01DX010 (ip), vehicle: saline) 103 % of control and 96 % of control; under setting [4], 103 % of control and 100 % of control; under setting [5], 103 % of control and 96 % of control.
As for `O=C(CNC(=O)OCc1ccccc1)NCCCCCCNCCCCCCNC(=O)CNC(=O)OCc1ccccc1`, the T/C is 100 % of control under setting [1]; 107 % of control under setting [2]; 103 % of control under setting [6]; 100 % of control (endpoint: mean survival time, dose: 200.0 mg/kg/injection, schedule: Q01DX010 (ip), vehicle: saline).
For the compound `COc1cc(C[C@H]2c3cc(OC)c(OC)cc3CCN2C)c(Oc2cc3c(cc2OC)-c2c(OC)c(OC)cc4c2[C@H](C3)N(C)CC4)cc1OC`, the T/C was 92 % of control under setting [1] and 92 % of control under setting [2].
For `Cn1c(=O)c2c(ncn2C)n(C)c1=O`, the T/C is, setting by setting: under setting [1], 100 % of control; under setting [2], 100 % of control; under setting [6], 100 % of control.
